# According to patent US11203601B2, “Tricyclic compounds as glycogen synthase kinase 3 (GSK3) inhibitors and uses thereof” (The Broad Institute, Inc., priority 2017, dated 2021):
# Assays:
# Test in all cases: Carna kinome panel
# Format in all cases: biochemical
# ITK = ITK (Homo sapiens (Human), UniProt Q08881); settings: read-out: % Inhibition at 10 μM of the test compound
# DDR1 = DDR1 (Homo sapiens (Human), UniProt Q08345); settings: read-out: % Inhibition at 10 μM of the test compound
# TBK1 = TBK1 (Homo sapiens (Human), UniProt Q9UHD2); settings: read-out: % Inhibition at 10 μM of the test compound
# PYK2 = PYK2 (Homo sapiens (Human), UniProt Q14289); settings: read-out: % Inhibition at 10 μM of the test compound
# NEK2 = NEK2 (Homo sapiens (Human), UniProt P51955); settings: read-out: % Inhibition at 10 μM of the test compound
# ABL(E255K) = ABL(E255K) (Homo sapiens (Human), UniProt P00519, E255K); settings: read-out: % Inhibition at 10 μM of the test compound
# QIK = QIK (Homo sapiens (Human), UniProt Q9H0K1); settings: read-out: % Inhibition at 10 μM of the test compound
# TNK1 = TNK1 (Homo sapiens (Human), UniProt Q13470); settings: read-out: % Inhibition at 10 μM of the test compound
# Erk2 = Erk2 (Homo sapiens (Human), UniProt P28482); settings: read-out: % Inhibition at 10 μM of the test compound
# MSK2 = MSK2 (Homo sapiens (Human), UniProt O75676); settings: read-out: % Inhibition at 10 μM of the test compound
# PIM3 = PIM3 (Homo sapiens (Human), UniProt Q86V86); settings: read-out: % Inhibition at 10 μM of the test compound
# p38δ = p38δ (Homo sapiens (Human), UniProt O15264); settings: read-out: % Inhibition at 10 μM of the test compound
# PGK = PGK (Homo sapiens (Human), UniProt Q13976); settings: read-out: % Inhibition at 10 μM of the test compound
# CaMK2β = CaMK2β (Homo sapiens (Human), UniProt Q13554); settings: read-out: % Inhibition at 10 μM of the test compound
# SLK = SLK (Homo sapiens (Human), UniProt Q9H2G2); settings: read-out: % Inhibition at 10 μM of the test compound
# CHK2 = CHK2 (Homo sapiens (Human), UniProt O96017); settings: read-out: % Inhibition at 10 μM of the test compound
# EPHA7 = EPHA7 (Homo sapiens (Human), UniProt Q15375); settings: read-out: % Inhibition at 10 μM of the test compound
# NEK9 = NEK9 (Homo sapiens (Human), UniProt Q8TD19); settings: read-out: % Inhibition at 10 μM of the test compound
# CK2α2/β = CK2α2/β (Homo sapiens (Human), UniProt P19784); settings: read-out: % Inhibition at 10 μM of the test compound
# Experimental: (§1) Briefly, a selection of compounds was screened against a panel of kinases at a single concentration of 10 μM. […] This was completed using one of two assays, depending on the kinase being examined: 1) IMAP Assay. A solution of 4× inhibitor, 4× substrate/ATP/metal solution and 2× kinase solution was prepared with assay buffer (20 mM HEPES, 0.01% Tween-20, 2 mM DTT, pH 7.4) and mixed, then incubated in 384-well black plates for 1 hour at room temperature. The IMAP binding reagent (IMAP Screening Express kit; Molecular Devices) was added to each well and incubated for 30 minutes. […] 2) Off-Chip Mobility Shift Assay (MSA). A solution of 4× inhibitor, 4× substrate/ATP/metal solution and 2× kinase solution was prepared with assay buffer (20 mM HEPES, 0.01% Triton X-100, 2 mM DTT, pH 7.5) and mixed, then incubated in 384-well plates for 1 or 5 hours depending on the kinase, at room temperature. Termination buffer (QuickScout Screening assist MSA; Carna Biosciences) was added to each well. The entire reaction mixture was then applied to a LabChip3000 system (Caliper Life Science), and the product and substrate peptide peaks were separated and quantified. […] The entire reaction mixture was then applied to a LabChip3000 system (Caliper Life Science), and the product and substrate peptide peaks were separated and quantified.
# ROS = ROS (Homo sapiens (Human), UniProt P08922); settings: read-out: % Inhibition at 10 μM of the test compound
# FGFR3(K650M) = FGFR3(K650M) (Homo sapiens (Human), UniProt P22607, K650M); settings: read-out: % Inhibition at 10 μM of the test compound
# WNK2 = WNK2 (Homo sapiens (Human), UniProt Q9Y3S1); settings: read-out: % Inhibition at 10 μM of the test compound
# MAPKAPK2 = MAPKAPK2 (Homo sapiens (Human), UniProt P49137); settings: read-out: % Inhibition at 10 μM of the test compound
# NDR2 = NDR2 (Homo sapiens (Human), UniProt Q9Y2H1); settings: read-out: % Inhibition at 10 μM of the test compound
# PIM1 = PIM1 (Homo sapiens (Human), UniProt P11309); settings: read-out: % Inhibition at 10 μM of the test compound
# JAK2 = JAK2 (Homo sapiens (Human), UniProt O60674); settings: read-out: % Inhibition at 10 μM of the test compound
# PKCθ = PKCθ (Homo sapiens (Human), UniProt Q04759); settings: read-out: % Inhibition at 10 μM of the test compound
# ROCK1 = ROCK1 (Homo sapiens (Human), UniProt Q13464); settings: read-out: % Inhibition at 10 μM of the test compound
# IKKα = IKKα (Homo sapiens (Human), UniProt O15111); settings: read-out: % Inhibition at 10 μM of the test compound
# PDGFRα(D842V) = PDGFRα(D842V) (Homo sapiens (Human), UniProt P16234, D842V); settings: read-out: % Inhibition at 10 μM of the test compound
# PKCα = PKCα (Homo sapiens (Human), UniProt P17252); settings: read-out: % Inhibition at 10 μM of the test compound
# MAP3K1_Cascade = tested on: MAP3K1_Cascade
# Experimental: as §1
# SGK2 = SGK2 (Homo sapiens (Human), UniProt Q9HBY8); settings: read-out: % Inhibition at 10 μM of the test compound
# MET = MET (Homo sapiens (Human), UniProt P08581); settings: read-out: % Inhibition at 10 μM of the test compound
# BMX = BMX (Homo sapiens (Human), UniProt P51813); settings: read-out: % Inhibition at 10 μM of the test compound
# EEF2K = EEF2K (Homo sapiens (Human), UniProt O00418); settings: read-out: % Inhibition at 10 μM of the test compound
# MRCKα = MRCKα (Homo sapiens (Human), UniProt Q5VT25); settings: read-out: % Inhibition at 10 μM of the test compound
# CK1δ = CK1δ (Homo sapiens (Human), UniProt P48730); settings: read-out: % Inhibition at 10 μM of the test compound
# TRKB = TRKB (Homo sapiens (Human), UniProt Q16620); settings: read-out: % Inhibition at 10 μM of the test compound
# MUSK = MUSK (Homo sapiens (Human), UniProt O15146); settings: read-out: % Inhibition at 10 μM of the test compound
# AKT1 = AKT1 (Homo sapiens (Human), UniProt P31749); settings: read-out: % Inhibition at 10 μM of the test compound
# Sequence of PGK (Q13976 whole entry): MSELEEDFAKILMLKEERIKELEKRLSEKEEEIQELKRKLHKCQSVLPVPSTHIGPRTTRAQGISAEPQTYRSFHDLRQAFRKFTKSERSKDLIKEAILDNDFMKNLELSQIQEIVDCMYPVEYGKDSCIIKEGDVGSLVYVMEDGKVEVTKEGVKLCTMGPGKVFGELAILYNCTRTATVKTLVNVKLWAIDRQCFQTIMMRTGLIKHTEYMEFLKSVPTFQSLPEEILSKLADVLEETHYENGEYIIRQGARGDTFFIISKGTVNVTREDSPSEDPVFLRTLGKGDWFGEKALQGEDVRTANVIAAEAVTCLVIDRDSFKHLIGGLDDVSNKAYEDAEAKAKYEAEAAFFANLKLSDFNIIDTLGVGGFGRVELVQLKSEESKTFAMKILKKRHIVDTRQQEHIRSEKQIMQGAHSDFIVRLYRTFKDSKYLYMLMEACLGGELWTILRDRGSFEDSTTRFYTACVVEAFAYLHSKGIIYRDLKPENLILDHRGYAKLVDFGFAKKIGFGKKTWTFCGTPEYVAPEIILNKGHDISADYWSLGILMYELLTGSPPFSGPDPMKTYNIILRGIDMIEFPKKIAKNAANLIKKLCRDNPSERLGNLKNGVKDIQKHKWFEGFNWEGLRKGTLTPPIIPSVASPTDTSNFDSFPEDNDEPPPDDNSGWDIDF
# Sequence of NDR2 (Q9Y2H1 whole entry): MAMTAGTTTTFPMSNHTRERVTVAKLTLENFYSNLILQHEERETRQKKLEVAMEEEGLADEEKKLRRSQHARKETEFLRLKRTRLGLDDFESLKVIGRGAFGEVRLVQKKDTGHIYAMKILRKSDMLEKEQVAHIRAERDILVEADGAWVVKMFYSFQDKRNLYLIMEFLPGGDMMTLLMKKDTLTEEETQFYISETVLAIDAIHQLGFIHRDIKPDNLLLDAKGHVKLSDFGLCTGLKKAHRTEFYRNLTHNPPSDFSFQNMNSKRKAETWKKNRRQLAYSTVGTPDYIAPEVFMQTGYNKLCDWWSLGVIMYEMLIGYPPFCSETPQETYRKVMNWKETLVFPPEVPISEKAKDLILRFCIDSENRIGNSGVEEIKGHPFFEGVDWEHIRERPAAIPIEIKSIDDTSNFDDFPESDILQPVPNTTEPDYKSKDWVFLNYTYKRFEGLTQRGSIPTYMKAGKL
# Sequence of SGK2 (Q9HBY8 whole entry): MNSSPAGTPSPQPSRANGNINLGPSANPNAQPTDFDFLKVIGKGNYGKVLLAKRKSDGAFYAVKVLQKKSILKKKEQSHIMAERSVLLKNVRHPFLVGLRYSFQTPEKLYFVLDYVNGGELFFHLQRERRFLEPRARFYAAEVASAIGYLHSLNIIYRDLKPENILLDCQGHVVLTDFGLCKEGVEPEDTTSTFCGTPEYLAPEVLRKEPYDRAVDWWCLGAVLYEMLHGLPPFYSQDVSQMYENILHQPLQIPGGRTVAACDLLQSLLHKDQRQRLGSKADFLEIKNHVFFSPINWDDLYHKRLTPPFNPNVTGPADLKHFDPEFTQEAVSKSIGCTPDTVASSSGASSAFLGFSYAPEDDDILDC
# Sequence of MRCKα (Q5VT25 whole entry): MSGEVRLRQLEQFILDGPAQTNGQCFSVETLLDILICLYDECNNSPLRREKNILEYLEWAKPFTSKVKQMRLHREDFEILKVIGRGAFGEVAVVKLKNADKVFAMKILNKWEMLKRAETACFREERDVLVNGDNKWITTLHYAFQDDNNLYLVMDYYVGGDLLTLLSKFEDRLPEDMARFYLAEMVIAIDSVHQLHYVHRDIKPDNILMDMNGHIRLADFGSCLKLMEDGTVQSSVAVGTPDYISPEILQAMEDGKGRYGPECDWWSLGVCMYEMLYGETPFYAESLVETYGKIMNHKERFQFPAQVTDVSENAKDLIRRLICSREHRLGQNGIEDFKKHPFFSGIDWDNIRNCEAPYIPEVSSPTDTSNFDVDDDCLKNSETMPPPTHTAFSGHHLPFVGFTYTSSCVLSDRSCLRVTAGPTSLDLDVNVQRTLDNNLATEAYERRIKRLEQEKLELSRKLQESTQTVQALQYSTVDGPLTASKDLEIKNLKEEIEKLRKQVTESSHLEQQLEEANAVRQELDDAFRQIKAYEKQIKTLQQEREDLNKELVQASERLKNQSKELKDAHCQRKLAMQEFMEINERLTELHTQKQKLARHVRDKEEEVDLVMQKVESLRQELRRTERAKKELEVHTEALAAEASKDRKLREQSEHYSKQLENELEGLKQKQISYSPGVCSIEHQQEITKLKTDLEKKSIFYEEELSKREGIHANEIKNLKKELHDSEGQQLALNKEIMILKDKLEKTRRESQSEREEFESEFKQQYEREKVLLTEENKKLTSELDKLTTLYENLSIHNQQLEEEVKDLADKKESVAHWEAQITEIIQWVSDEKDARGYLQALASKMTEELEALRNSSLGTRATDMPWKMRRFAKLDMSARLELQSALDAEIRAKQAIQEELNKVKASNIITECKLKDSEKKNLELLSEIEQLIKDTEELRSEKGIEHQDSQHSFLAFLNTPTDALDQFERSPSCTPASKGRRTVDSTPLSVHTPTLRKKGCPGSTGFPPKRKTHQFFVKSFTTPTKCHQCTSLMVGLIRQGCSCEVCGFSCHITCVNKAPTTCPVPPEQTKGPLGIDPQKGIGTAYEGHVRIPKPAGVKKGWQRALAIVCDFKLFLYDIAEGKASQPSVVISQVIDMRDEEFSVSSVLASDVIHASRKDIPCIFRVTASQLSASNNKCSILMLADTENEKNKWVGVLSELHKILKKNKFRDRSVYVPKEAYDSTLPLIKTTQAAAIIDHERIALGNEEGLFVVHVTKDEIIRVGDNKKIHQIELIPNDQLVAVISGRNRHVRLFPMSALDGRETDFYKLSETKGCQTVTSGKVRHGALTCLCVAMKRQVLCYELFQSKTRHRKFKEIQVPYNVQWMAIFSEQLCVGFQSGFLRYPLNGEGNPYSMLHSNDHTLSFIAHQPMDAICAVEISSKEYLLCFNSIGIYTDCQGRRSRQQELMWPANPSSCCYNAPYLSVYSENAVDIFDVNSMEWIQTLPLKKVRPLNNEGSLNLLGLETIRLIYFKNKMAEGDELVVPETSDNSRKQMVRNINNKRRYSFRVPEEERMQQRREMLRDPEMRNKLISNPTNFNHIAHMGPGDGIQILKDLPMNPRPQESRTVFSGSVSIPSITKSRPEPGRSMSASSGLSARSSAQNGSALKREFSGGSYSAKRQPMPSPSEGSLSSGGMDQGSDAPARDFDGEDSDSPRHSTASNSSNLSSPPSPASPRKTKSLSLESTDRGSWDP
# Sequence of TBK1 (Q9UHD2 whole entry): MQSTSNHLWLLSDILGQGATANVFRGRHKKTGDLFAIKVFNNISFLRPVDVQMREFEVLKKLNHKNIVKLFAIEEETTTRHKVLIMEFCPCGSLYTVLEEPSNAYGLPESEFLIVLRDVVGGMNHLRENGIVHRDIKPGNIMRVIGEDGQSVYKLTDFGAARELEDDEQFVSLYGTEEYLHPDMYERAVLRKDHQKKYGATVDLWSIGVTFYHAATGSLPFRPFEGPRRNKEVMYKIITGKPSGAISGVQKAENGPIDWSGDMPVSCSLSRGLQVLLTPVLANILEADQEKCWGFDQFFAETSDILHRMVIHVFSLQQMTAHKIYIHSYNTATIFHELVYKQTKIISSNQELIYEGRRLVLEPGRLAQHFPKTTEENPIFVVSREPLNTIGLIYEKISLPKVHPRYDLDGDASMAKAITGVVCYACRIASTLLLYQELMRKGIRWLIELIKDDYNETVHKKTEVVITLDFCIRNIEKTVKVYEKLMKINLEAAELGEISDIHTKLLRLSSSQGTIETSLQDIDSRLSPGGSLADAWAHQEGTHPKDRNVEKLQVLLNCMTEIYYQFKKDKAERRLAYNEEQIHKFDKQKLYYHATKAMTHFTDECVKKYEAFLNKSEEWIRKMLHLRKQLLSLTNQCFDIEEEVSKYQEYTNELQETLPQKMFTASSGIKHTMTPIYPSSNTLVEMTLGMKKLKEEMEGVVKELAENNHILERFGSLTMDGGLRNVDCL
# Sequence of PIM1 (P11309 whole entry): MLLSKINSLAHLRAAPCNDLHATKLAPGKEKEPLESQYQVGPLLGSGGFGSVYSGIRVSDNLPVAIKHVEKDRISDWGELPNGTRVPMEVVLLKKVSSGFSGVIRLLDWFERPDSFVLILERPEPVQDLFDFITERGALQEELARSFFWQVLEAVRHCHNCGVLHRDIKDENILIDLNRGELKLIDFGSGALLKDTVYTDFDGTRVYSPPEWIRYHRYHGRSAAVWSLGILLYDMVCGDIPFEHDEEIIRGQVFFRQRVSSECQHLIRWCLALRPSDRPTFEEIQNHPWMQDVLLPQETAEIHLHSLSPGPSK
# Sequence of MAPKAPK2 (P49137 whole entry): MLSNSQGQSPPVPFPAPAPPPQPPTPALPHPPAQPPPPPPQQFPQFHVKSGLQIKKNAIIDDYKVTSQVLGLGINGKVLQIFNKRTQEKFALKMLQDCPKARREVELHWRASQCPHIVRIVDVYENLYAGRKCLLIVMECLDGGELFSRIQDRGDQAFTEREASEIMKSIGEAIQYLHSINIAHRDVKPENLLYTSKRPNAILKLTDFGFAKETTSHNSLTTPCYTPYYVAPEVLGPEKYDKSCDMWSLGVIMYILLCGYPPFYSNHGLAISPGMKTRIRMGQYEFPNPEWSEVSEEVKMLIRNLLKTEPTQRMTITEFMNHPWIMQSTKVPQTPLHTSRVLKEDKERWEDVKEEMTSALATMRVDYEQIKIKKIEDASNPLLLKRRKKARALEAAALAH
# Sequence of Erk2 (P28482 whole entry, looked up): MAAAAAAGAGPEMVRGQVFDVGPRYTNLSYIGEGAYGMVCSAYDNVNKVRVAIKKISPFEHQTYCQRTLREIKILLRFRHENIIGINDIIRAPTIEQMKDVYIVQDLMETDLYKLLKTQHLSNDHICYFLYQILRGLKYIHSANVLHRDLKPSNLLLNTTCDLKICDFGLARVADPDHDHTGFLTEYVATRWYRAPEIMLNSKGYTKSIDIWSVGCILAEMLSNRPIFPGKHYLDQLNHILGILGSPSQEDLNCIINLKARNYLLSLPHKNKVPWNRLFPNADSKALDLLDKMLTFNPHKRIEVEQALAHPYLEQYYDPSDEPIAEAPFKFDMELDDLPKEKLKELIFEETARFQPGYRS
smiles,measurement,setting,value
"CCC1(c2ccccc2)C2=C(CC(C)(C)CC2=O)Nc2ncsc21 (centres unmarked) [Compound 1, 9-Ethyl-6,6-dimethyl-9-phenyl-5,6,7,9-tetrahydrothiazolo[4,5-b]quinolin-8(4H)-one]",inhibition at 10 µM,ITK,0%
same,inhibition at 10 µM,DDR1,1.4%
same,inhibition at 10 µM,TBK1,-5.3%
same,inhibition at 10 µM,PYK2,-3.1%
same,inhibition at 10 µM,NEK2,0.9%
same,inhibition at 10 µM,ABL(E255K),-1.4%
same,inhibition at 10 µM,QIK,6.9%
same,inhibition at 10 µM,TNK1,11.7%
same,inhibition at 10 µM,Erk2,0.5%
same,inhibition at 10 µM,MSK2,0.7%
same,inhibition at 10 µM,PIM3,1.1%
same,inhibition at 10 µM,p38δ,18%
same,inhibition at 10 µM,PGK,0.9%
same,inhibition at 10 µM,CaMK2β,2.8%
same,inhibition at 10 µM,SLK,-0.6%
same,inhibition at 10 µM,CHK2,3.3%
same,inhibition at 10 µM,EPHA7,33.9%
same,inhibition at 10 µM,NEK9,0.3%
same,inhibition at 10 µM,CK2α2/β,-11.4%
same,inhibition at 10 µM,ROS,-0.2%
same,inhibition at 10 µM,FGFR3(K650M),-4%
same,inhibition at 10 µM,WNK2,0.5%
same,inhibition at 10 µM,MAPKAPK2,-13.4%
same,inhibition at 10 µM,NDR2,-1.2%
same,inhibition at 10 µM,PIM1,0%
same,inhibition at 10 µM,JAK2,-0.9%
same,inhibition at 10 µM,PKCθ,-11.2%
same,inhibition at 10 µM,ROCK1,7%
same,inhibition at 10 µM,IKKα,-1.6%
same,inhibition at 10 µM,PDGFRα(D842V),-3.4%
same,inhibition at 10 µM,PKCα,-11%
same,% Inhibition at 10 μM of the test compound,MAP3K1_Cascade,−1.0%
same,inhibition at 10 µM,SGK2,-8.7%
same,inhibition at 10 µM,MET,8.9%
same,inhibition at 10 µM,BMX,-10.6%
same,inhibition at 10 µM,EEF2K,1.6%
same,inhibition at 10 µM,MRCKα,3.3%
same,inhibition at 10 µM,CK1δ,8.2%
same,inhibition at 10 µM,TRKB,16%
same,inhibition at 10 µM,MUSK,0%
same,inhibition at 10 µM,AKT1,0.7%
